In ChEMBL document CHEMBL1255533, “PKI-179: an orally efficacious dual phosphatidylinositol-3-kinase (PI3K)/mammalian target of rapamycin (mTOR) inhibitor” (Bioorg Med Chem Lett, 2010) one finds IC50 and Activity data, which are given here for 1 compound.

Activity calls are given as the source filed them. The rule behind the calls is not given here. Some results are limits rather than exact numbers.

In test [1] the target is T1, Phosphatidylinositol 4,5-bisphosphate 3-kinase catalytic subunit delta isoform (Homo sapiens, UniProt O00329).
T1 sequence (O00329 whole entry): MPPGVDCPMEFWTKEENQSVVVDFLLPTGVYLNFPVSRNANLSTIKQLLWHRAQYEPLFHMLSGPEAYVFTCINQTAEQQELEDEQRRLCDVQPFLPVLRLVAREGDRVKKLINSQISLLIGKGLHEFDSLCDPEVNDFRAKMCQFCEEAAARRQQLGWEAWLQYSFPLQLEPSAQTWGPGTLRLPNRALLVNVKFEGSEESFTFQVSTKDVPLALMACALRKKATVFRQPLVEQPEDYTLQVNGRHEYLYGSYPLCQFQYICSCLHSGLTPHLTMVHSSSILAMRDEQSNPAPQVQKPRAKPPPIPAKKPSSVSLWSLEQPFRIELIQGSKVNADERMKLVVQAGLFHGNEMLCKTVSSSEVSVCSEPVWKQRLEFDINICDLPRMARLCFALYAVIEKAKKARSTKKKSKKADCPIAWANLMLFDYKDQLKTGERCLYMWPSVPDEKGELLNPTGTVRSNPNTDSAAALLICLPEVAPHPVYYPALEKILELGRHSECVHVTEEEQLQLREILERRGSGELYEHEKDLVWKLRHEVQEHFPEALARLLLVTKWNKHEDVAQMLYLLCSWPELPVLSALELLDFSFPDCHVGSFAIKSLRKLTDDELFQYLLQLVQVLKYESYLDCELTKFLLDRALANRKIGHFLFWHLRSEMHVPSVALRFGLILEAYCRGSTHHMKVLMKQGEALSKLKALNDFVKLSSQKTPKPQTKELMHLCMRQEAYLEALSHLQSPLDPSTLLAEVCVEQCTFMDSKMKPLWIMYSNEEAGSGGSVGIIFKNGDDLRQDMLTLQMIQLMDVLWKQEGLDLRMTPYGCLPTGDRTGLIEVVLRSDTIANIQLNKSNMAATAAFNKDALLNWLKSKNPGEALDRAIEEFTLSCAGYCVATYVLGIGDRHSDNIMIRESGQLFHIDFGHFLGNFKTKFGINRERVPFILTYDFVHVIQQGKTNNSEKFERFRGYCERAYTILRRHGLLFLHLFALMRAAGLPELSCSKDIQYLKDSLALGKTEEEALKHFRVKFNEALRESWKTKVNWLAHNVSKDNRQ
The experiment in a line: Inhibition of PI3K-delta.

A further test relates to MDA-MB-361. The experiment in a line: Induction of apoptosis in human MDA-MB-361 cells assessed as PARP cleavage after 4 hrs. The class given is functional, cell-based.
In another test the target is Cytochrome P450 3A4 (Homo sapiens, UniProt P08684). The experiment in a line: Inhibition of CYP3A4. The format is ADME.
Cytochrome P450 3A4, sequence (P08684 whole entry): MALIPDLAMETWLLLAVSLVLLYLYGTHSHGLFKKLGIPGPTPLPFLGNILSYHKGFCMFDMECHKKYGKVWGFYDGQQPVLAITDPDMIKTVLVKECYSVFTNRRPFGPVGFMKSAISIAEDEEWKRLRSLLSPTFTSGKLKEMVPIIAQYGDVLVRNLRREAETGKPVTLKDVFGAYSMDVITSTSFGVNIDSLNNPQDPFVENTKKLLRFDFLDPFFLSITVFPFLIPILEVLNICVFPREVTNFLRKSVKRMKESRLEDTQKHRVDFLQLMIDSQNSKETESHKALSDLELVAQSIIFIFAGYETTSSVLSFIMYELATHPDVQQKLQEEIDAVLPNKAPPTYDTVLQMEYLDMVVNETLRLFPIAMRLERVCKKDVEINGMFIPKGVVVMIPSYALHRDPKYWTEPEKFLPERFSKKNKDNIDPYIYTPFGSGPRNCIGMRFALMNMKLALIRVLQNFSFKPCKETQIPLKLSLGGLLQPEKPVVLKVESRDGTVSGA

With `O=C(Nc1ccncc1)Nc1ccc(-c2nc(N3CCOCC3)nc(N3C4CCC3COC4)n2)cc1` [PKI-179], the half-inhibitory concentration (IC50) (commonly the concentration at which inhibition is half-maximal) in test [1] is 77 nM; against Cytochrome P450 3A4 it was over 30000 nM. For the same compound, the result in the test with MDA-MB-361 was Active.
